The nature of data set [1]: Calculated physicochemical parameters (molsoft cheminformatic tool). As to conditions: predicted. How it is done: Data set of physicochemical properties (cLogP, TPSA and molecular volume, Table 2) were calculated using the online available molsoft cheminformatic tool[23]. IC50 values of the compounds included in the test are presented in Table 1 for the correlations between IC50 and physicochemical properties of compounds modified in position 2 (Figure 2), and in Table S1 (SI) for the correlations between in vitro anti-cancer activity of JMV5038, compound 5 and […] on the NCI cell line panel (Figure 4). Pearson’s correlation coefficient r and level of significant p values were calculated using Origin Pro 2019.

Data set [2] deals with MDA-MB-435 cells. Briefly: DNA cell cycle analysis (flow cytometry). The class given is cell-based, human. As to conditions: 5 µM; for proportion of cells in G2/M phase: control 14.3%; for proportion of cells in G1 phase: control 47.1%. The method, then: The cell cycle analysis was performed as previously described to compare data with our previous results. Flow cytometric analysis was performed on 350,000 MDA-MB-435 cells seeded in culture dishes (60 mm diameter) and allowed to grow for 48 h. Cells were then treated with compound 5 or 8 at 5 µM concentration for 16 h and 48 h. After treatment cells were harvested and fixed with 70% ethanol. The fixed cells were then incubated with 10 mg/mL RNase A (Sigma Aldrich) and 1 mg/mL propidium iodide (Sigma Aldrich), in the dark, for 24 h at 4 °C. Finally, DNA content of the cells was analysed using Gallios Beckman Coulter flow cytometer with FlowJo software v1.0.
Thus, compound 5 could probably shared a common mechanism of action with JMV5038, contrary to compound 8. DNA cell cycle analysis was performed using MDA-MB-435 cells treated with either compound 5 or compound 8, and compared to that obtained with cells treated with vehicle (DMSO) as a negative control. Cell cycle pattern changes of MDA-MB-435 cells were investigated using fluorescence-activated cell sorting (FACS) (Figure 5 and Figure S1, SI). In this experiment MDA-MB-435 cells were treated with or without 5 µM concentration of compound 5 or 8 for 16 h and 48 h.
A general note: Flow cytometry measures light scatter and fluorescence of single cells or particles in a stream.

Data set [3] has as its system HL-60(TB). Briefly: NCI-60 SRB assay, HL-60(TB) (Leukemia). Type of data set: cell-based, human. As to conditions: 10 µM, 48 h; for G%: growth vs untreated control. The method, then: (§1) Primary anticancer assay was performed on a panel of 60 human cancer cell lines derived from nine neoplastic diseases, in accordance with the protocol of the Drug Evaluation Branch, National Cancer Institute, Bethesda, Maryland, USA[22]. Cells were incubated with tested compounds at 10 µM for 48 h. The growth percentage was evaluated spectrophotometrically using a protein binding dye, SRB. Results for each tested compound were reported as the percent of growth of treated cells when compared to untreated control cells.
(§2) To better compare the activity profile of these two series of compounds, compounds 5 and 8 were selected and then evaluated towards a panel of sixty cancer cell lines corresponding to nine different cancer types, i.e. leukaemia, melanoma, as well as lung, colon, central nervous system, ovarian, renal, prostate and breast cancers (NCI evaluation). Indeed, it is now well established that the growth inhibitory patterns of anticancer drugs against the NCI-60 cell line panel correlated well with their modes of action. For example, compounds that bind to tubulin have similar growth inhibition patterns regardless of which site on tubulin they bind[30]. […] Compounds were tested using the sulforhodamine B (SRB) assay that provides a direct cell density index. The amount of dye incorporated by the cells increases with the increase of the total protein biomass. Cells were incubated for 48 h with compounds at 10 µM concentration, then cell growth was evaluated spectrophotometrically and presented as the percent of untreated control cells. Values of the most sensitive cell lines were compared to those obtained with JMV5038 (Figure 4, for all data see SI).
On the technique in general: Sulforhodamine B stains cellular protein and so reports cell mass.

The subject of data set [4] is K-562. Briefly: NCI-60 SRB assay, K-562 (Leukemia). The class given is cell-based, human. Particulars: 10 µM, 48 h; for G%: growth vs untreated control. The method, then: as §1, §2
The subject of data set [5] is NIH-3T3 non-cancerous cells. Also noted: method as in PMID 24561668. Particulars: even at 100 µM; cited from earlier work.

With `C[C@@H]1NC(c2ccc(N=[N+]=[N-])cc2)=Nc2nc3ccccn3c2C1=O` [Compound 5, (4S)-4-methyl-2-(4-azidophenyl)-3,4-dihydro-5H-pyrido[1’,2’:1,2]imidazo[4,5-d][1,3]diazepin-5-one], in data set [1], the “molecular volume increase compared to JMV5038” value was 4%. Also, in data set [2] (16 h), the “proportion of cells in G2/M phase” value is recorded as 33.1% and the “proportion of cells in G1 phase” value is on record as “decrease of cells in G1 phase”. In addition, in data set [2] (48 h), the “proportion of cells in G2/M phase” value is on record as 18.4%. The “cells in subG1 phase (apoptosis)” value in data set [2] (time not explicit (sentence follows 48 h), control 1.2%) was determined as 2.4%.
For `[N-]=[N+]=NCCCC[C@@H]1NC(c2ccc(Br)cc2)=Nc2nc3ccccn3c2C1=O` [Compound 16, (4S)-4-(4-azidobutyl)-2-(4-bromophenyl)-3,4-dihydro-5H-pyrido[1’,2’:1,2]imidazo[4,5-d][1,3]diazepin-5-one], in data set [3], the “Mean G% - G%” value is on record as 18,52% and the G% is reported as 73,25%.
`C[C@@H]1NC(c2csc3ccccc23)=Nc2nc3ccccn3c2C1=O` [Compound 8, (4S)-4-methyl-2-benzothiophen-3-yl-3,4-dihydro-5H-pyrido[1’,2’:1,2]imidazo[4,5-d][1,3]diazepin-5-one]: the figures for the “proportion of cells in G2/M phase” value in data set [2] (16 h) and in data set [2] (48 h) were 20.8% and 15.4%, respectively. Moreover, in data set [2] (16 h), the “proportion of cells in G1 phase” value was found to be 53.0%. The “Mean G% - G%” value in data set [3] is reported as 6,00%; in data set [4], -6,34%. The G% in data set [3] was 68,87%; in data set [4], 81,21%.
Regarding `C[C@@H]1NC(c2ccc(Br)cc2)=Nc2nc3ccccn3c2C1=O` [JMV5038], in data set [4], the “Mean G% - G%” value is listed as 29,92% and the G% was 24,32%. Further, the “cytotoxic activity on NIH-3T3 fibroblasts” value in data set [5] was “no significant cytotoxic activity”.

The record behind these values is paper PMC7170309, “Imidazopyridine-fused [1,3]diazepinones: modulations of positions 2 to 4 and their impacts on the anti-melanoma activity” (Journal of Enzyme Inhibition and Medicinal Chemistry, 2020).
